{"source": "patent US6699849B1", "about": "“Cyclodextrin complexes of benzodiazepines” (Cyclops, ehf., priority 1998, dated 2004)", "key": {"[1]": {"assay": "Transdermal delivery of enalaprilat from 10% (w/v) HPβCD solutions, effect of heating with polymers", "format": "in vitro ADME", "conditions": "for Flux Ratio (heated/un-heated): donor phase HPβCD, pH 5.0", "source_text": "It is possible to enhance the cyclodextrin (CD) complexation efficacy, or efficiency, of drugs (D), and other “guest” molecules, by either increasing the apparent stability constant (KC) of the drug-cyclodextrin complex (D-CD) or increasing the apparent intrinsic solubility (S0) of the drug. For example, KC can be increased by addition of water-soluble polymers to the aqueous complexation media and S0 can be increased by ionization of the drug molecule, as described previously. […] On the other hand, if the drug-cyclodextrin complexes are prepared under conditions which ensure enhanced complexation and if the complexation efficiency decreases upon administration, then enhanced drug availability will be observed. Thus, the present invention involves: i) enhancement of the complexation efficiency and ii) reduction of the complexation efficiency after administration. For example, it is possible to enhance the complexation efficiency of many ionizable drugs by preparing the complexes at a pH where the drug is ionized but obtain decreased efficiency upon administration due to pH changes and consequent decreased ionization. One example of such a drug is phenytoin (pKa 8.1). […] However, if the pH 8.0 solution was placed in an environment which would decrease the pH from 8 to 5 (e.g. topical application to the skin), then a supersaturated solution would be formed which would result in enhanced drug availability (e.g. it would result in enhanced transdermal drug delivery). Other means to enhance S0 include reversible derivation (e.g. prodrug formation) of the guest molecule and addition of certain low molecular weight acids. The value of KC can, for example, be increased by addition of certain low molecular weight acids, by addition of water-soluble polymers to the aqueous complexation media or by using mixed solvent systems such as aqueous 10% (v/v) acetic acid. […] The effect of the polymers on the transdermal delivery of enalaprilat can, at least partly, be explained by decreased complexation efficiency (i.e. decrease in KC) at the skin surface."}, "[2]": {"assay": "First-order rate constant of diazepine ring-closure (regeneration of the benzodiazepine)", "format": "physicochemical", "conditions": "pH 7.5, 37° C.", "procedure": "The effect of cyclodextrins and organic solvents on the rate of diazepine ring-closure of several selected benzodiazepines was investigated. Stock solutions containing 1.0×10^−3 M of the benzodiazepine in 0.10 M aqueous hydrochloric acid solution (pH approx. 1.1) were prepared and stored at 37.0° C. The benzodiazepines were in the ring-open form in these stock solutions. Aqueous 0.50 M tris buffer (pH 7.50) solution was prepared. The observed first-order rate constant for the closing (i.e. formation) of the benzodiazepine ring was determined in the following reaction media: a) pure aqueous tris buffer solution; b) aqueous tris buffer solution containing 10% (w/v) cyclodextrin; c) tris buffer solution containing 10% (w/v) cyclodextrin and 10% (v/v) ethanol (EtOH); d) tris buffer solution containing 10% (w/v) cyclodextrin and 50% (v/v) EtOH; e) tris buffer solution containing 10% (w/v) cyclodextrin and 10% (v/v) dimethylsulfoxide (DMSO); and f) tris buffer solution containing 10% (w/v) cyclodextrin and 50% (w/v) DMSO. The stock solution (30 μl) was added to 1.50 ml of the reaction media which had previously been equilibrated to 37.0° C. and the first-order rate constant for the appearance of the closed form determined from the appearance of the closed form as observed on HPLC. Tables 5, 6 and 7 show the effects of cyclodextrins, EtOH and DMSO on the observed first-order rate constant for the regeneration of alprazolam, triazolam and midazolam, respectively. In pure aqueous buffer solutions, addition of EtOH and DMSO decreases somewhat the rate of ring closure, at least in the case of alprazolam and midazolam. Addition of cyclodextrin or the organic solvents have insignificant effect on the pH under these conditions. The dielectric constant of the reaction medium will, however, decrease upon addition of the organic solvents. It is possible that this decrease in the dielectric constant will reduce the ability of the reaction media to stabilize the transition state which could explain the decrease in the observed rate constant. […] The cyclodextrins formed stable complexes with the ring-open form of the drug and, thus, the rate decreased upon addition of cyclodextrin. […] EtOH and DMSO will compete with the diazepine ring-open form for a space in the cyclodextrin cavity resulting in decreased complexation."}, "[3]": {"assay": "Effect of pH and cyclodextrins on the fraction of the open form (diazepine ring-opening) of benzodiazepines", "format": "physicochemical", "procedure": "The cyclodextrin concentration was 10% (w/v) and the benzodiazepine concentration was 1×10^−4 M. The concentration of the closed form was determined immediately after dissolving the benzodiazepine in the aqueous cyclodextrin solution and again 24 hours later (i.e. after equilibration at 23° C.). Preliminary experiments had shown that equilibrium between the closed and the open form was attained within 3 hours at 23° C."}}}
{"smiles": "C[C@H](N[C@@H](CCc1ccccc1)C(=O)O)C(=O)N1CCC[C@H]1C(=O)O", "note": "[enalaprilat]", "values": [{"measurement": "Flux Ratio (heated/un-heated)", "setting": "[1]; 0.10% HPMC", "value": 2.6}, {"measurement": "Flux Ratio (heated/un-heated)", "setting": "[1]; 0.25% PVP", "value": 1.4}, {"measurement": "effect of polymers on transdermal delivery", "setting": "[1]; polymers added to unheated vehicles", "value": "did not enhance"}, {"measurement": "effect of polymers on transdermal delivery", "setting": "[1]; vehicles heated after addition of the polymers", "value": "significant enhancement"}]}
{"smiles": "Cc1nnc2n1-c1ccc(Cl)cc1C(c1ccccc1Cl)=NC2", "note": "[triazolam, 8-chloro-6-(o-chlorophenyl)-1-methyl-4H-s-triazolo[4,3-a][1,4]benzodiazepine]", "values": [{"measurement": "observed first-order rate constant, ring formation", "setting": "[2]; 10% HPβCD, 10% DMSO", "value": 0.0079, "unit": "min⁻¹"}, {"measurement": "observed first-order rate constant, ring formation", "setting": "[2]; 10% HPβCD, 10% EtOH", "value": 0.0092, "unit": "min⁻¹"}, {"measurement": "observed first-order rate constant, ring formation", "setting": "[2]; 10% HPβCD, 50% DMSO", "value": 0.0114, "unit": "min⁻¹"}, {"measurement": "observed first-order rate constant, ring formation", "setting": "[2]; 10% HPβCD, 50% EtOH", "value": 0.0102, "unit": "min⁻¹"}, {"measurement": "observed first-order rate constant, ring formation", "setting": "[2]; 10% HPβCD, pure water", "value": 0.0066, "unit": "min⁻¹"}, {"measurement": "observed first-order rate constant, ring formation", "setting": "[2]; 10% RMβCD, 10% DMSO", "value": 0.0078, "unit": "min⁻¹"}, {"measurement": "observed first-order rate constant, ring formation", "setting": "[2]; 10% RMβCD, 10% EtOH", "value": 0.0092, "unit": "min⁻¹"}, {"measurement": "observed first-order rate constant, ring formation", "setting": "[2]; 10% RMβCD, 50% DMSO", "value": 0.0112, "unit": "min⁻¹"}, {"measurement": "observed first-order rate constant, ring formation", "setting": "[2]; 10% RMβCD, 50% EtOH", "value": 0.01, "unit": "min⁻¹"}, {"measurement": "observed first-order rate constant, ring formation", "setting": "[2]; 10% RMβCD, pure water", "value": 0.0064, "unit": "min⁻¹"}, {"measurement": "observed first-order rate constant, ring formation", "setting": "[2]; 10% SBEβCD, 10% DMSO", "value": 0.0073, "unit": "min⁻¹"}, {"measurement": "observed first-order rate constant, ring formation", "setting": "[2]; 10% SBEβCD, 10% EtOH", "value": 0.0082, "unit": "min⁻¹"}, {"measurement": "observed first-order rate constant, ring formation", "setting": "[2]; 10% SBEβCD, 50% DMSO", "value": 0.0113, "unit": "min⁻¹"}, {"measurement": "observed first-order rate constant, ring formation", "setting": "[2]; 10% SBEβCD, 50% EtOH", "value": 0.0097, "unit": "min⁻¹"}, {"measurement": "observed first-order rate constant, ring formation", "setting": "[2]; 10% SBEβCD, pure water", "value": 0.0058, "unit": "min⁻¹"}, {"measurement": "observed first-order rate constant, ring formation", "setting": "[2]; No CD, 10% DMSO", "value": 0.0128, "unit": "min⁻¹"}, {"measurement": "observed first-order rate constant, ring formation", "setting": "[2]; No CD, 10% EtOH", "value": 0.0131, "unit": "min⁻¹"}, {"measurement": "observed first-order rate constant, ring formation", "setting": "[2]; No CD, 50% DMSO", "value": 0.0137, "unit": "min⁻¹"}, {"measurement": "observed first-order rate constant, ring formation", "setting": "[2]; No CD, 50% EtOH", "value": 0.0184, "unit": "min⁻¹"}, {"measurement": "observed first-order rate constant, ring formation", "setting": "[2]; No CD, pure water", "value": 0.0132, "unit": "min⁻¹"}, {"measurement": "Fraction open", "setting": "[3]; 10% (w/v) HPβCD, pH 2, approx. 23° C.", "value": 0.51}, {"measurement": "Fraction open", "setting": "[3]; 10% (w/v) HPβCD, pH 3, approx. 23° C.", "value": 0.09}, {"measurement": "Fraction open", "setting": "[3]; 10% (w/v) HPβCD, pH 4, approx. 23° C.", "value": 0.00}, {"measurement": "Fraction open", "setting": "[3]; 10% (w/v) SBEβCD, pH 2, approx. 23° C.", "value": 0.71}, {"measurement": "Fraction open", "setting": "[3]; 10% (w/v) SBEβCD, pH 3, approx. 23° C.", "value": 0.25}, {"measurement": "Fraction open", "setting": "[3]; 10% (w/v) SBEβCD, pH 4, approx. 23° C.", "value": 0.00}, {"measurement": "Fraction open", "setting": "[3]; 10% (w/v) αCD, pH 2, approx. 23° C.", "value": 0.75}, {"measurement": "Fraction open", "setting": "[3]; 10% (w/v) αCD, pH 3, approx. 23° C.", "value": 0.23}, {"measurement": "Fraction open", "setting": "[3]; 10% (w/v) αCD, pH 4, approx. 23° C.", "value": 0.00}, {"measurement": "Fraction open", "setting": "[3]; 10% (w/v) γCD, pH 2, approx. 23° C.", "value": 0.33}, {"measurement": "Fraction open", "setting": "[3]; 10% (w/v) γCD, pH 3, approx. 23° C.", "value": 0.01}, {"measurement": "Fraction open", "setting": "[3]; 10% (w/v) γCD, pH 4, approx. 23° C.", "value": 0.00}, {"measurement": "Fraction open", "setting": "[3]; no cyclodextrin, pH 2, approx. 23° C.", "value": 0.53}, {"measurement": "Fraction open", "setting": "[3]; no cyclodextrin, pH 3, approx. 23° C.", "value": 0.08}, {"measurement": "Fraction open", "setting": "[3]; no cyclodextrin, pH 4, approx. 23° C.", "value": 0.00}]}
